Test results as given in ChEMBL document CHEMBL3044654, “Sensitivity of four isolates of Clonostachys rosea to pesticides used in the strawberry crop in Brazil” (2012).

How the values were obtained:
Assay type in all cases: functional
Clonostachys rosea [1] = assay: Toxicity against Bionectria ochroleuca I62 assessed as inhibition of mycelial growth at 0.006 to 0.037 mg/ml measured every 24 hr intervals over 192 hr
Clonostachys rosea [2] = assay: Toxicity against Bionectria ochroleuca I60 assessed as inhibition of mycelial growth at 0.006 to 0.037 mg/ml measured every 24 hr intervals over 192 hr
Clonostachys rosea [3] = assay: Toxicity against Bionectria ochroleuca assessed as inhibition of conidial germination at 0.006 to 0.037 ug/ml measured every 24 hr intervals over 192 hr
Clonostachys rosea [4] = assay: Toxicity against Bionectria ochroleuca I19 assessed as inhibition of mycelial growth at 0.006 to 0.037 mg/ml measured every 24 hr intervals over 192 hr
Clonostachys rosea [5] = assay: Toxicity against Bionectria ochroleuca I61 assessed as inhibition of mycelial growth at 0.006 to 0.037 mg/ml measured every 24 hr intervals over 192 hr
Clonostachys rosea [6] = assay: Toxicity against Bionectria ochroleuca assessed as inhibition of mycelial growth at 0.006 to 0.037 ug/ml measured every 24 hr intervals over 192 hr
Clonostachys rosea [7] = assay: Toxicity against Bionectria ochroleuca assessed as inhibition of conidial germination at 0.001 to 0.009 ug/ml
Clonostachys rosea [8] = assay: Toxicity against Bionectria ochroleuca assessed as inhibition of mycelial growth at 0.001 to 0.009 ug/ml
Clonostachys rosea [9] = assay: Toxicity against Bionectria ochroleuca assessed as inhibition of mycelial growth at 0.12 to 0.75 mg/ml measured every 24 hr intervals over 192 hr
Clonostachys rosea [10] = assay: Toxicity against Bionectria ochroleuca assessed as inhibition of conidial germination at 0.12 to 0.75 mg/ml measured every 24 hr intervals over 192 hr
Clonostachys rosea [11] = assay: Toxicity against Bionectria ochroleuca I60 assessed as inhibition of mycelial growth at 0.3 to 1.8 mg/ml measured every 24 hr intervals over 192 hr
Clonostachys rosea [12] = assay: Toxicity against Bionectria ochroleuca I19 assessed as inhibition of mycelial growth at 0.3 to 1.8 mg/ml measured every 24 hr intervals over 192 hr
Clonostachys rosea [13] = assay: Toxicity against Bionectria ochroleuca I62 assessed as inhibition of mycelial growth at 0.3 to 1.8 mg/ml measured every 24 hr intervals over 192 hr
Clonostachys rosea [14] = assay: Toxicity against Bionectria ochroleuca assessed as inhibition of mycelial growth at 0.3 to 1.8 mg/ml measured every 24 hr intervals over 192 hr
Clonostachys rosea [15] = assay: Toxicity against Bionectria ochroleuca assessed as inhibition of conidial germination at 0.3 to 1.8 mg/ml measured every 24 hr intervals over 192 hr
Clonostachys rosea [16] = assay: Toxicity against Bionectria ochroleuca I61 assessed as inhibition of mycelial growth at 0.3 to 1.8 mg/ml measured every 24 hr intervals over 192 hr
Clonostachys rosea [17] = assay: Toxicity against Bionectria ochroleuca assessed as inhibition of conidial germination at 0.009 to 0.055 ug/ml
Clonostachys rosea [18] = assay: Toxicity against Bionectria ochroleuca assessed as inhibition of mycelial growth at 0.009 to 0.055 ug/ml
Clonostachys rosea [19] = assay: Toxicity against Bionectria ochroleuca I60 assessed as inhibition of mycelial growth at 0.25 to 1.50 mg/ml measured every 24 hr intervals over 192 hr
Clonostachys rosea [20] = assay: Toxicity against Bionectria ochroleuca I62 assessed as inhibition of conidial germination at 0.25 to 1.50 mg/ml measured every 24 hr intervals over 192 hr
Clonostachys rosea [21] = assay: Toxicity against Bionectria ochroleuca assessed as inhibition of mycelial growth at 0.25 to 1.50 mg/ml measured every 24 hr intervals over 192 hr
Clonostachys rosea [22] = assay: Toxicity against Bionectria ochroleuca I62 assessed as inhibition of mycelial growth at 0.25 to 1.50 mg/ml measured every 24 hr intervals over 192 hr
Clonostachys rosea [23] = assay: Toxicity against Bionectria ochroleuca I61 assessed as inhibition of conidial germination at 0.25 to 1.50 mg/ml measured every 24 hr intervals over 192 hr
Clonostachys rosea [24] = assay: Toxicity against Bionectria ochroleuca I19 assessed as inhibition of mycelial growth at 0.25 to 1.50 mg/ml measured every 24 hr intervals over 192 hr
Clonostachys rosea [25] = assay: Toxicity against Bionectria ochroleuca assessed as inhibition of conidial germination at 0.25 to 1.50 mg/ml measured every 24 hr intervals over 192 hr
Clonostachys rosea [26] = assay: Toxicity against Bionectria ochroleuca I61 assessed as inhibition of mycelial growth at 0.25 to 1.50 mg/ml measured every 24 hr intervals over 192 hr

Compound: CN1COCN(Cc2cnc(Cl)s2)/C1=N\[N+](=O)[O-] [THIAMETHOXAM]
- growth inhibition (GI) (Clonostachys rosea [1]): 1.82%
- growth inhibition (GI) (Clonostachys rosea [2]): 2.65%
- inhibition (INH) (Clonostachys rosea [3]): 1%
- growth inhibition (GI) (Clonostachys rosea [4]): 0.36%
- growth inhibition (GI) (Clonostachys rosea [5]): 0.51%
- growth inhibition (GI) (Clonostachys rosea [6]): 0.1%

Compound: CCCCOC(=O)[C@@H](C)Oc1ccc(Oc2ccc(C(F)(F)F)cn2)cc1 [FLUAZIFOP-P-BUTYL]
- inhibition (INH) (Clonostachys rosea [7]): 2.2%
- growth inhibition (GI) (Clonostachys rosea [8]): 3.6%

Compound: CC12CC1(C)C(=O)N(c1cc(Cl)cc(Cl)c1)C2=O (stereo unspecified) [PROCYMIDONE]
- growth inhibition (GI) (Clonostachys rosea [9]): 66%
- inhibition (INH) (Clonostachys rosea [10]): 59%

Compound: O=C1C2CC=CCC2C(=O)N1SC(Cl)(Cl)Cl (stereo unspecified) [CAPTAN]
- growth inhibition (GI) (Clonostachys rosea [11]): 82.2%
- growth inhibition (GI) (Clonostachys rosea [12]): 81.8%
- growth inhibition (GI) (Clonostachys rosea [13]): 86.2%
- growth inhibition (GI) (Clonostachys rosea [14]): 75%
- inhibition (INH) (Clonostachys rosea [15]): 61%
- growth inhibition (GI) (Clonostachys rosea [16]): 81.8%

Compound: CCCN(CCC)c1c([N+](=O)[O-])cc(C(F)(F)F)cc1[N+](=O)[O-] [TRIFLURALIN]
- inhibition (INH) (Clonostachys rosea [17]): 2.2%
- growth inhibition (GI) (Clonostachys rosea [18]): 3.6%

Compound: CCOC(=O)CC(SP(=S)(OC)OC)C(=O)OCC (stereo unspecified) [MALATHION]
- growth inhibition (GI) (Clonostachys rosea [19]): 34.59%
- inhibition (INH) (Clonostachys rosea [20]): 14.9%
- growth inhibition (GI) (Clonostachys rosea [21]): 22%
- growth inhibition (GI) (Clonostachys rosea [22]): 29.32%
- inhibition (INH) (Clonostachys rosea [23]): 12.7%
- growth inhibition (GI) (Clonostachys rosea [24]): 36.87%
- inhibition (INH) (Clonostachys rosea [25]): 10%
- growth inhibition (GI) (Clonostachys rosea [26]): 32.67%
